{"source": "patent US20260216348A1", "about": "“IRAK DEGRADATION AGENT AND USE THEREOF” (Increland, priority 2023, published 2026)", "key": {"IRAK4": {"target": "T1, IRAK4 (Homo sapiens, UniProt Q9NWZ3)", "T1 construct": "Effect of the Compounds on IRAK4 Protein Degradation in THP1 Cells; endogenous in cells; host or cells: THP-1 cells", "T1 sequence (Q9NWZ3 1-460)": "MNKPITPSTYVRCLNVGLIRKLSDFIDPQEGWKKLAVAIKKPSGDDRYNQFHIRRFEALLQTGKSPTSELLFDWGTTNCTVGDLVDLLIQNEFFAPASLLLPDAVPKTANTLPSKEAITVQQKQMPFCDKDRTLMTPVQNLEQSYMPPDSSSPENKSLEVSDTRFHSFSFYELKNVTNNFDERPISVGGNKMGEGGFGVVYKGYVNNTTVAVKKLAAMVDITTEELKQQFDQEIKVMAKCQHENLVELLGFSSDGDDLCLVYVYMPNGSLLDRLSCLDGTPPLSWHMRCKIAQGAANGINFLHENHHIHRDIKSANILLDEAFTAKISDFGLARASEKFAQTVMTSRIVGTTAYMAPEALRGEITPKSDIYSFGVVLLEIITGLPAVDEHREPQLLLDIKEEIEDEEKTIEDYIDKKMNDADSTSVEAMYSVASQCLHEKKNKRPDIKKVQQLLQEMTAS", "test": "IRAK4 protein degradation in THP1 cells (Western blot)", "format": "cell-based", "details": "THP-1 cells, 24 h", "method_in_brief": "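THP-1 cells (2×10^5/well) were treated with 5-fold serial compound dilutions for 24 h at 37 °C, then lysed with proteasome/phosphatase inhibitors. IRAK4 was detected by Western blot with chemiluminescence and semi-quantified by densitometry. DC50 came from the concentration–response.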"}, "[1]": {"tested_on": "LPS/IL-1β-induced IL-6 secretion in human peripheral blood mononuclear cells (PBMCs)", "test": "Inhibition of LPS/IL-1β-induced IL-6 secretion in human PBMCs (IL-6 ELISA)", "format": "cell-based", "details": "PBMC, LPS 10 ng/mL + IL-1β 20 ng/mL, 24 h pre-incubation, 20 h stimulation", "method_in_brief": "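PBMCs preincubated 24 h at 37 °C with compounds (5-fold dilutions from 1 μM) in RPMI/10% FBS, then stimulated 20 h with LPS 10 ng/mL plus IL-1β 20 ng/mL (final). IL-6 in 200-fold diluted supernatant measured by ELISA at OD450 against a standard curve; IC50 from dose-response fitting.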"}, "[2]": {"test": "Metabolic stability in human liver microsome", "format": "in vitro ADME", "details": "liver microsomes, NADPH, 60 min, read-out: Human liver microsome (t1/2, min)", "description": "Clean incubation plates T60 and NCF60 were preheated at 37° C. for 10 min. Liver microsomes were diluted to a concentration of 0.56 mg/mL with 100 mM phosphate buffer, and 445 μL of the microsome working solution (0.56 mg/mL) was transferred to the preheated incubation plates T60 and NCF60, followed by incubation of the plates T60 and NCF60 with continuous shaking at 37° C. for 10 min. After incubation, 54 μL of liver microsomes were transferred to a blank plate, 6 μL of NAPDH cofactor was added to the blank plate, and then 180 μL of quenching solution was added to the blank plate. 5 μL of the compound working solution (100 μM) was added to the microsome-containing incubation plates T60 and NCF60, and mixed thoroughly 3 times. For plate NCF60, 50 μL of buffer was added and the system was mixed thoroughly 3 times before timing was started, and the plate was incubated with shaking at 37° C. for 60 min. For the quenching plate, 180 μL of quenching solution and 6 μL of NADPH cofactor were added, and the plate was ensured to be cooled to prevent evaporation. For the T60 plate, the mixture was thoroughly mixed 3 times, and 54 μL of the mixture was immediately transferred to the quenching plate at the time point of 0 min. Then 44 μL of the NAPDH cofactor was added to the incubation plate (T60). Timing was started, and the plate was incubated with shaking at 37° C. for 60 min. At the time points of 5, 15, 30, 45, and 60 min, 180 μL of the quenching solution was added to the quenching plate respectively, mixed once, and 60 μL of sample was continuously transferred from the plate T60 to the quenching plate at each time point. For plate NCF60, after mixing once, 60 μL of the sample was transferred from incubation plate NCF60 to the quenching plate containing quenching solution at the 60-min time point. All sampling plates were shaken for 10 min, then centrifuged at 4000 rpm at 4° C. for 20 min. 80 μL of the supernatant was transferred to 240 μL of HPLC water, and mixed using a plate shaker for 10 min. Each bioanalytical plate was sealed and shaken for 10 min before LC-MS/MS analysis."}}}
{"smiles": "CN(C)c1cc2nn([C@H]3CC[C@H](CN4C[C@@H](n5cc6cc(C7CCC(=O)NC7=O)c(F)cc6n5)[C@@H](F)C4)CC3)cc2cc1NC(=O)c1cnn2cccnc12", "note": "(stereo partly shown) [TM-241]", "values": [{"measurement": "DC50", "setting": "IRAK4", "value": 11.7, "unit": "nM"}, {"measurement": "IC50", "setting": "[1]", "value": 6.35, "unit": "nM"}, {"measurement": "half-life at 1 µM", "setting": "[2]", "value": 106, "unit": "min"}]}
{"smiles": "CN(C)c1cc2nn([C@H]3CC[C@H](CN4C[C@@H](F)[C@H](n5cc6cc(C7CCC(=O)NC7=O)ccc6n5)C4)CC3)cc2cc1NC(=O)c1cnn2cccnc12", "note": "(stereo partly shown) [TM-244]", "values": [{"measurement": "DC50", "setting": "IRAK4", "value": 3.21, "unit": "nM"}, {"measurement": "IC50", "setting": "[1]", "value": 4.95, "unit": "nM"}, {"measurement": "half-life at 1 µM", "setting": "[2]", "value": 79.5, "unit": "min"}]}
{"smiles": "CN(C)c1cc2nn([C@H]3CC[C@H](CN4C[C@@H](n5cc6cc(N7CCC(=O)NC7=O)ccc6n5)[C@@H](F)C4)CC3)cc2cc1NC(=O)c1cnn2cccnc12", "note": "[TM-205]", "values": [{"measurement": "DC50", "setting": "IRAK4", "value": 1.56, "unit": "nM"}, {"measurement": "IC50", "setting": "[1]", "value": 2.47, "unit": "nM"}]}
{"smiles": "CN(C)c1cc2nn([C@H]3CC[C@H](CN4C[C@@H](F)[C@H](n5cc6cc(C7CCC(=O)NC7=O)c(F)cc6n5)C4)CC3)cc2cc1NC(=O)c1cnn2cccnc12", "note": "(stereo partly shown) [TM-245]", "values": [{"measurement": "DC50", "setting": "IRAK4", "value": 1.41, "unit": "nM"}, {"measurement": "IC50", "setting": "[1]", "value": 2.58, "unit": "nM"}, {"measurement": "half-life at 1 µM", "setting": "[2]", "value": 87.4, "unit": "min"}]}
{"smiles": "CN(C)c1cc2nn([C@H]3CC[C@H](CN4CC[C@@H](n5cc6cc(C7CCC(=O)NC7=O)c(F)cc6n5)[C@@H](F)C4)CC3)cc2cc1NC(=O)c1cnn2cccnc12", "note": "(stereo partly shown) [TM-135]", "values": [{"measurement": "DC50", "setting": "IRAK4", "value": 1.23, "unit": "nM"}, {"measurement": "IC50", "setting": "[1]", "value": 2.66, "unit": "nM"}, {"measurement": "half-life at 1 µM", "setting": "[2]", "value": 65, "unit": "min"}]}
{"smiles": "CN(C)c1cc2nn([C@H]3CC[C@H](CN4C[C@@H](F)[C@@H](n5cc6cc(C7CCC(=O)NC7=O)c(F)cc6n5)C4)CC3)cc2cc1NC(=O)c1cnn2cccnc12", "note": "(stereo partly shown) [TM-240]", "values": [{"measurement": "DC50", "setting": "IRAK4", "value": 2.61, "unit": "nM"}, {"measurement": "IC50", "setting": "[1]", "value": 1.09, "unit": "nM"}, {"measurement": "half-life at 1 µM", "setting": "[2]", "value": 98.6, "unit": "min"}]}
{"smiles": "CN(C)c1cc2nn([C@H]3CC[C@H](CN4CCC(n5cc6c(F)cc(N7CCC(=O)NC7=O)cc6n5)CC4)CC3)cc2cc1NC(=O)c1cnn2cccnc12", "note": "[TM-174]", "values": [{"measurement": "DC50", "setting": "IRAK4", "value": 1.24, "unit": "nM"}, {"measurement": "IC50", "setting": "[1]", "value": 1.49, "unit": "nM"}]}
{"smiles": "CN(C)c1cc2nn([C@H]3CC[C@H](CN4C[C@H](F)[C@@H](n5cc6cc(C7CCC(=O)NC7=O)c(F)cc6n5)C4)CC3)cc2cc1NC(=O)c1cnn2cccnc12", "note": "(stereo partly shown) [TM-249]", "values": [{"measurement": "DC50", "setting": "IRAK4", "value": 2.38, "unit": "nM"}, {"measurement": "IC50", "setting": "[1]", "value": 3.08, "unit": "nM"}, {"measurement": "half-life at 1 µM", "setting": "[2]", "value": 139, "unit": "min"}]}
